# Reference: ChEMBL document CHEMBL1201862, “PubChem BioAssay data set” (2004)
# Active and inactive are the calls of the source.
# Assays:
# Leucine aminopeptidase = molecular target: T1, Leucine aminopeptidase (Plasmodium falciparum 3D7, UniProt Q8IL11); test: P. falciparum M17LAP inhibitors, primary screen, biochemical, fluorogenic H-Leu-NHMec substrate, 1536-well (AID 1619); format: functional
# T1 sequence (Q8IL11 whole entry): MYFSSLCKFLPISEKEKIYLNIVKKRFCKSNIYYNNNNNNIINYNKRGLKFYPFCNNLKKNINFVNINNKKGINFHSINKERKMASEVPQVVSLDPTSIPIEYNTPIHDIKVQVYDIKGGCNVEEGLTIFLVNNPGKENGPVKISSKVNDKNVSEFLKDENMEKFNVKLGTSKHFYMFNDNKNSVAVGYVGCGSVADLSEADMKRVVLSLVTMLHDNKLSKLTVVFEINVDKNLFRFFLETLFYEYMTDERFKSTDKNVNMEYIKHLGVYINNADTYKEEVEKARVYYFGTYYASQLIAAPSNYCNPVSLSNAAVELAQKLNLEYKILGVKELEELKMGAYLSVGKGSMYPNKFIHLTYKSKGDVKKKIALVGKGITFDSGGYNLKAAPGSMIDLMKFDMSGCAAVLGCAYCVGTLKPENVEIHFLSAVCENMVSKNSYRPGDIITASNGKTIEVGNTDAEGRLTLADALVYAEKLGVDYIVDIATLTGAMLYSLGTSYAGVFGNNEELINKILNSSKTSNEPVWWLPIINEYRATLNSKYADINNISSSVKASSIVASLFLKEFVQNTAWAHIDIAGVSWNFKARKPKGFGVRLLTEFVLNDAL
# [1] = NIH3T3 cell viability loss – ATP luminescence, mouse fibroblasts, counter-screen, dose response (AID 2010); format: functional, cell-based;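 note: cells exposed to compound for about 90 hours before reading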
# [2] = Trypanosoma cruzi growth suppression in host cells – NIH3T3 host cells, beta-gal luminescence, confirmation (AID 2044); format: functional, cell-based;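 note: intracellular parasites grown in NIH/3T3 mouse fibroblasts as host cells; luminescent beta-galactosidase reporter signal from transgenic T. cruzi replicating inside host cells; inhibitors lower the luminescence signal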
# [3] = A Cell Based Secondary Assay To Explore Cytotoxicity of Compounds that Sensitize Mycobacterium Tuberculosis to Beta-Lactam Antibiotics.; format: functional
# [4] = A cytotoxicity screen of small molecule inhibitors of the PhoP region in Salmonella typhi identified in the primary screen. [Related pubchem assays: 1850, 1864, 1985 ]; format: functional
# [5] = molecular target: Photoreceptor-specific nuclear receptor (Homo sapiens, UniProt Q9Y5X4); format: functional;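 note: potency for compounds that break the NR2E3 corepressor complex and count as activators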
# [6] = molecular target: Peroxisome proliferator-activated receptor gamma/Nuclear receptor coactivator 1 (Homo sapiens, UniProt P37231); format: functional;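 note: agonist potency as compounds enhance coactivator SRC-1 recruitment to PPARgamma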
# [7] = molecular target: Peroxisome proliferator-activated receptor gamma/Nuclear receptor coactivator 2 (Homo sapiens, UniProt P37231); format: functional;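 note: agonist potency for raising coactivator recruitment to the receptor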
# [8] = molecular target: Peroxisome proliferator-activated receptor gamma/Nuclear receptor coactivator 3 (Homo sapiens, UniProt P37231); format: functional;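 note: agonist potency for raising coactivator recruitment to the receptor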
# [9] = molecular target: Peroxisome proliferator-activated receptor gamma/Nuclear receptor corepressor 2 (Homo sapiens, UniProt P37231+Q9Y618); format: functional
# cells [10] = format: functional, cell-based
# cells [11] = format: functional, cell-based; remark: listed apart in the source
# SN12K1 = test: cells; format: functional; settings: Homo sapiens
# P388 = test: cells; format: functional; settings: Mus musculus
# P388/ADR = test: cells; format: functional; settings: Mus musculus
# HT-1080 = test: HT1080 cell viability loss – fluorescence readout (AID 620); format: functional, cell-based; settings: Homo sapiens
# [12] = luciferase reporter signal suppression in cells – H4 neuroglioma cells, luminescence, dose response (AID 1990); format: functional, cell-based
# [13] = molecular target: Glyceraldehyde-3-phosphate dehydrogenase (Homo sapiens, UniProt P04406)
# [14] = alpha-synuclein stem-loop luciferase translation blockers – H4 neuroglioma cells, luminescence, confirmation (AID 1988); format: functional, cell-based
# [15] = molecular target: Luciferin 4-monooxygenase (Photinus pyralis, UniProt P08659); test: Counter Screen for Luciferase-based Assay Positives. [Related pubchem assays: 620, 618, 411 ]
# [16] = Luminescence Cell-Based Dose Response HTS to Identify Inhibitors of 5'UTR Stem-Loop Driven Prion Protein mRNA Translation in H4 Neuroglioblastoma Cells. [Related pubchem assays: 1827 (Project Summary), 1813 (Primary HTS)]; format: functional
# Cytochrome P450 2C19 = Cytochrome P450 2C19 (Homo sapiens, UniProt P33261); test: Cytochrome panel assay with activity outcomes. Panel member name: p450-cyp2c19 Compounds with AC50 equal or less than 10 uM are considered active; format: functional; settings: read-out: AC50
# [17] = reduction of Shn3 3'UTR-driven luciferase in osteoblasts – cell-based, Clone20 osteoblasts, firefly luciferase, cherry-picked, dose response (AID 624132); format: functional;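 note: firefly luciferase luminescence from reporter carrying the Shn3 3'UTR in osteoblasts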
# cells [18] = format: functional
# [19] = non-specific 3'UTR reporter inhibition in Clone20-Shn3RL – cell-based, Renilla luciferase, cherry-picked, counter-screen for Shn3 inhibitor project, dose response (AID 624133); format: functional
# [20] = loss of viability in HepG2 cells – cell-based, CellTiter-Glo, cherry-picked, cytotoxicity control for Shn3 inhibitor project, dose response (AID 624134); format: functional
# [21] = HepG2 cell cytotoxicity, dose response, cytotoxicity control for non-replicating M. tuberculosis project (AID 489018); format: functional; settings: Mycobacterium tuberculosis
# Jurkat = test: blockers of NF-kB activation in T cells – Jurkat, luciferase reporter, luminescence, B- and T-cell, dose response (AID 489004); format: functional, cell-based; settings: Homo sapiens;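 note: NF-kB luciferase reporter Jurkat cells stimulated with PMA plus ionomycin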
# cells [22] = format: functional, cell-based; remark: listed apart in the source
# [23] = HEK-293T viability loss, compound-treated – cell-based, uHTS hits, cytotoxicity control for B/T-cell NF-kB inhibitor project, dose response (AID 489019); format: functional;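 note: IC50 reflects cytotoxicity as loss of cell viability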
# [24] = luciferase reporter signal reduction – luminescence, H4-C neuroglioblastoma cells, dose response (AID 2458); format: functional, cell-based;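 note: H4 neuroglioblastoma cells stably carrying a luciferase reporter gene fusion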
# [25] = alpha-synuclein stem-loop translation blockers – luminescence, H4 neuroglioblastoma cells, dose confirmation, confirmation (AID 2454); format: functional, cell-based;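 note: H4 neuroglioblastoma cells carrying an alpha-synuclein 5'UTR luciferase reporter; potency for inhibition of the luciferase signal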
# Cytochrome P450 2C9 = Cytochrome P450 2C9 (Homo sapiens, UniProt P11712)
# [26] = molecular target: T2, Microphthalmia-associated transcription factor (Homo sapiens, UniProt O75030); test: reducers of TRPM1 reporter luminescence, concentration series – cell-based, SK-MEL-5, cherry-picked, set 3, MITF inhibitor project, dose response (AID 493073); format: functional;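 note: SK-MEL-5 melanoma cells with luciferase driven by the MITF target TRPM1 promoter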
# T2 sequence (O75030 whole entry): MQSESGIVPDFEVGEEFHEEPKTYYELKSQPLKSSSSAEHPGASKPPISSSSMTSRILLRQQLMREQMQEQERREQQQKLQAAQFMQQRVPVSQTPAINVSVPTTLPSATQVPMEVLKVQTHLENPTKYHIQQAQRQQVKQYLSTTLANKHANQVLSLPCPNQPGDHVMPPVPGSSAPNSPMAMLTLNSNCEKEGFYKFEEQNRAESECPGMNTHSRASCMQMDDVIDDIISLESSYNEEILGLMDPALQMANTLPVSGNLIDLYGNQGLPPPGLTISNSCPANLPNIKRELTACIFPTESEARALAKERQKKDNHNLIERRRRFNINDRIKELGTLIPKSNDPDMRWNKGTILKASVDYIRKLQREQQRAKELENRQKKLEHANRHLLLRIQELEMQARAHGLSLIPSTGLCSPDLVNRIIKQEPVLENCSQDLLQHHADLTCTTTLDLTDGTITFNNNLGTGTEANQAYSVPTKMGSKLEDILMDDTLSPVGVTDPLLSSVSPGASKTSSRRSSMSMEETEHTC
# Cytochrome P450 3A4 = Cytochrome P450 3A4 (Homo sapiens, UniProt P08684);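 note: CYP3A4 tested as one member of a cytochrome P450 panel screen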
# Luciferin 4-monooxygenase, sequence (P08659 whole entry): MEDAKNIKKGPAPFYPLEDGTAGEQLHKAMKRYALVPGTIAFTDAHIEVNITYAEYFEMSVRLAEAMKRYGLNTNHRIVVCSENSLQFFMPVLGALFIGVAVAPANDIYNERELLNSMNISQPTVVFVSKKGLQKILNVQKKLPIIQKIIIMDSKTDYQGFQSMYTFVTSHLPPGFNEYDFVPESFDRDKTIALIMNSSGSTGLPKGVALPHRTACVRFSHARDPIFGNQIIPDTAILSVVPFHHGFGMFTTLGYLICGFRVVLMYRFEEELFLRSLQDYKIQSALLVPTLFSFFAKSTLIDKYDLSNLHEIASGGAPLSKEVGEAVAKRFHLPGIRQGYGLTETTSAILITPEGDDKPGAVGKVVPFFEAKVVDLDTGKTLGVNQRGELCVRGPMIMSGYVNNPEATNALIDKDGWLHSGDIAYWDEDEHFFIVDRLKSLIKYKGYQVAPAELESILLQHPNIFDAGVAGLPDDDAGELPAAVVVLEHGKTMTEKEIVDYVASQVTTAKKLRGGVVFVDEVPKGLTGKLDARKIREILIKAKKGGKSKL
# Peroxisome proliferator-activated receptor gamma/Nuclear receptor coactivator 2, sequence (P37231 whole entry): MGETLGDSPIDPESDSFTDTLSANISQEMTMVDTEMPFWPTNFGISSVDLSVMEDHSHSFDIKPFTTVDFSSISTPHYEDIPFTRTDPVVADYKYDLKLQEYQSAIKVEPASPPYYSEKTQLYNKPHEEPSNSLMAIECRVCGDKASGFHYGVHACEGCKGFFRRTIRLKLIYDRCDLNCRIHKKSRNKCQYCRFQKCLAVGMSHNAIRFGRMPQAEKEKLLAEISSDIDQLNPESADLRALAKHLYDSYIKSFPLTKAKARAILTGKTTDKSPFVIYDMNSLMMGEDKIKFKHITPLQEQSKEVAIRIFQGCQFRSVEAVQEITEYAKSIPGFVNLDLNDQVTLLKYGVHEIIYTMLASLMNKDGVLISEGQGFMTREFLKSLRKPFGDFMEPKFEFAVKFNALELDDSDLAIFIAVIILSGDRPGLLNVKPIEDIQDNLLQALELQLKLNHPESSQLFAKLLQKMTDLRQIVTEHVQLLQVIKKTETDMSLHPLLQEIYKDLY
# Peroxisome proliferator-activated receptor gamma/Nuclear receptor coactivator 2, sequence (Q15596 whole entry, further chain): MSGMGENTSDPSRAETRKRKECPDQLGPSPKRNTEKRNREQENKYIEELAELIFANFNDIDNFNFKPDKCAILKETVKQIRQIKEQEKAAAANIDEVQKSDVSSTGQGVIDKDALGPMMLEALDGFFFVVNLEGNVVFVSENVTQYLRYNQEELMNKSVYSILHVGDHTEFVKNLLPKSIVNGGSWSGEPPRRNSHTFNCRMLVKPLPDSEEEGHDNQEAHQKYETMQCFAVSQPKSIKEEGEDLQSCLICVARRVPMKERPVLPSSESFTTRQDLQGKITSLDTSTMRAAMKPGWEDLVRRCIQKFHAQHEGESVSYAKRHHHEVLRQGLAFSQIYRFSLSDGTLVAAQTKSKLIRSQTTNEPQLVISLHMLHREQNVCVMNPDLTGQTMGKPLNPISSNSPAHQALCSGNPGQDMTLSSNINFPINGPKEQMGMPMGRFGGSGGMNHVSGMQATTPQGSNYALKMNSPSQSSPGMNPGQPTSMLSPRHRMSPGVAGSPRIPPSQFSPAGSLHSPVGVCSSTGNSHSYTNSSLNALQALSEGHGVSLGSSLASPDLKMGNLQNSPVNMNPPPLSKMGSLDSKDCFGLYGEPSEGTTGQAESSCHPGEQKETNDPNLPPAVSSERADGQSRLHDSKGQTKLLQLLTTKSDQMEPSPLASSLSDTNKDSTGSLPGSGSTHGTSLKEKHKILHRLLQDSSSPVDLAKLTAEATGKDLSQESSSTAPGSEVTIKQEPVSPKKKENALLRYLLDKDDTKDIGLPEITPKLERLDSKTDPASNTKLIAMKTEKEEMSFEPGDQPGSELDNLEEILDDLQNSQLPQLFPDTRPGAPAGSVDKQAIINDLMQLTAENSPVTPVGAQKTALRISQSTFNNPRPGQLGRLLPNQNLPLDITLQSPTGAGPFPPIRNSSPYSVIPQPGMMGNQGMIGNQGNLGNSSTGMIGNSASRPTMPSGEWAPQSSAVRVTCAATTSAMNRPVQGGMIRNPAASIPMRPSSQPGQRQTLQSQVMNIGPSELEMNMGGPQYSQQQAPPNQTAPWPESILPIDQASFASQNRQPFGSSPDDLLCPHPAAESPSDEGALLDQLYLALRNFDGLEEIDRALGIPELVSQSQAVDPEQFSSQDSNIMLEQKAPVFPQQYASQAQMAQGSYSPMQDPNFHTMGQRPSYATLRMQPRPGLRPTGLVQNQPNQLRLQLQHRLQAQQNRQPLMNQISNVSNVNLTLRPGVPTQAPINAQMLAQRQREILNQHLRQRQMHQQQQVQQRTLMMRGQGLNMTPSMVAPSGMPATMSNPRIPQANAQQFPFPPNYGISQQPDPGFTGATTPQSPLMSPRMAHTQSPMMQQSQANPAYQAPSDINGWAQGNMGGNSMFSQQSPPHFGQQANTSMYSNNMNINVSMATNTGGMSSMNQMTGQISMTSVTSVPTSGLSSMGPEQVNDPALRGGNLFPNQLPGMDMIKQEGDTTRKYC
# Peroxisome proliferator-activated receptor gamma/Nuclear receptor coactivator 3, sequence (P37231 whole entry): as the sequence (P37231 whole entry) above
# Peroxisome proliferator-activated receptor gamma/Nuclear receptor coactivator 3, sequence (Q9Y6Q9 whole entry, further chain): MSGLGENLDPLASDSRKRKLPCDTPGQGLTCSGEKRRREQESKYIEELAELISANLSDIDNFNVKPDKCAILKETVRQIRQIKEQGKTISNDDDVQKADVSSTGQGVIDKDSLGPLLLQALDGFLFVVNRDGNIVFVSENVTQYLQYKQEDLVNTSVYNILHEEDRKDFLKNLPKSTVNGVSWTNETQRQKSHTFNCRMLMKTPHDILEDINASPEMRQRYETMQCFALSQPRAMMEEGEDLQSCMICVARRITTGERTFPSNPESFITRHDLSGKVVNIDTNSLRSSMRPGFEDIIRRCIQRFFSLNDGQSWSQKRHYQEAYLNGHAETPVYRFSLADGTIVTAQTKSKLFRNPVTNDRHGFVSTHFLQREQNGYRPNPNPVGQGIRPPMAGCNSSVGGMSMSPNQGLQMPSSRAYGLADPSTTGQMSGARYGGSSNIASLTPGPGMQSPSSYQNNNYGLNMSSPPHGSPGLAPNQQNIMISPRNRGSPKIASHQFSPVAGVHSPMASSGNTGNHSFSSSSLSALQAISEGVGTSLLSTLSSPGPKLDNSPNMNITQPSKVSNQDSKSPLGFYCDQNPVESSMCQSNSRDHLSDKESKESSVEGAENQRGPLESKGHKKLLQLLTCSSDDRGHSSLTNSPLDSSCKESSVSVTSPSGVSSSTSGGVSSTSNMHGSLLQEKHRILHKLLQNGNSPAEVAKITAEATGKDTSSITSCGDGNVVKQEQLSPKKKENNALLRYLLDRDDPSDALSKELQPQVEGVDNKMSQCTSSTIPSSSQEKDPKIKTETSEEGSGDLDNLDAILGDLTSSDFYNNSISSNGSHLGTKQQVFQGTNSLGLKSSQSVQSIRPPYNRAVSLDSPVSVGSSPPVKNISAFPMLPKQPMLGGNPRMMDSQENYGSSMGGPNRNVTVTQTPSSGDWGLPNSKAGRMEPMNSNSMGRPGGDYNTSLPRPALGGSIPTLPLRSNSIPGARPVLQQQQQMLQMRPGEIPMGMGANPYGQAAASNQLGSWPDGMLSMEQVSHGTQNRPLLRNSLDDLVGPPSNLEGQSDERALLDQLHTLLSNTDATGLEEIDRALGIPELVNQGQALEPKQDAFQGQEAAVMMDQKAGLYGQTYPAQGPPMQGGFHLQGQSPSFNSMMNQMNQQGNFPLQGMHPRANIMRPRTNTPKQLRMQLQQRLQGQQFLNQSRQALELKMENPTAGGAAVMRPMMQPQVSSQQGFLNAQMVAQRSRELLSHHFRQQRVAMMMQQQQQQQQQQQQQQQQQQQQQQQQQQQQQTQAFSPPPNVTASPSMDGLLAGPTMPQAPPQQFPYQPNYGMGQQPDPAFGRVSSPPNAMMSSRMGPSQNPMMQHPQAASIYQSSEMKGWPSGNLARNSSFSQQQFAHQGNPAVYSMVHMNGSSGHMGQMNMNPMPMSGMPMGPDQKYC
# Photoreceptor-specific nuclear receptor, sequence (Q9Y5X4 whole entry): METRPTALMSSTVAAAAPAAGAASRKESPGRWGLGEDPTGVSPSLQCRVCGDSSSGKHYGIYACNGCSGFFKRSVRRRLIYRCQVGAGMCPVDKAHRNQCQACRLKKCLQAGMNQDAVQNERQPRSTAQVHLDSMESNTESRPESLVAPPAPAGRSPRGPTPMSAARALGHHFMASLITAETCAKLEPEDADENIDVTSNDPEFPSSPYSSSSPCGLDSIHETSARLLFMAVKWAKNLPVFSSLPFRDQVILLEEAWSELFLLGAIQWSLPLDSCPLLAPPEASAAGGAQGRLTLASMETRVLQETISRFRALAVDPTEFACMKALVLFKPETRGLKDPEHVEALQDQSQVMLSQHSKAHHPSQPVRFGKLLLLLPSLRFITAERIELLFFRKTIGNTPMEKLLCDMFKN
smiles,measurement,setting,value
CC(C)[C@H](Nc1nc(-c2ccccc2)nc2c1oc1ccccc12)C(=O)O,IC50,Leucine aminopeptidase,25.2 µM (active)
CCOC(=O)/C(=N\Nc1ccccc1)c1csc(Nc2ccc(C)cc2)n1,EC50,[1],> 30 µM (not active)
same,EC50,[2],2.13 µM (active)
same,CC50,[3],31.3 µM (active)
COc1ccc(-c2nc3cc(NC(=O)Cc4ccc(OC)c(OC)c4)ccc3o2)cc1,EC50,[4],> 50 µM (active)
O=C1C2ON(c3ccc(Br)cc3)C(c3cccnc3)C2C(=O)N1C1CCCCC1 (stereo not drawn),CC50,[3],37.9 µM (active)
CCc1cc2cc(C(=O)Nc3ccc(C)cc3)sc2s1,IC50,[5],> 39.8 µM (not active)
same,EC50,[6],50.4 µM (not active)
same,EC50,[7],28.1 µM (not active)
same,EC50,[8],50.8 µM (not active)
same,IC50,[9],2.25 µM (active)
COc1cccc(CNC(=O)CCCn2c(=S)[nH]c3cc4c(cc3c2=O)OCO4)c1,IC50,[5],> 39.8 µM (not active)
same,EC50,cells [10],54.4 µM (active)
same,IC50,[9],4.26 µM (active)
same,EC50,cells [11],> 350 µM (not active)
O=C1NC(=S)NC(=O)C1=C(O)Nc1ccccc1,GI50,SN12K1,15 µM (inactive)
same,GI50,P388,16.7 µM (inactive)
same,EC50,[4],> 50 µM (active)
same,GI50,P388/ADR,25.2 µM (inactive)
C=CCNC(=O)c1ccc(-c2nc(-c3ccc(Cl)cc3Cl)cs2)cc1,EC50,[6],17.1 µM (not active)
same,EC50,[7],10.2 µM (not active)
same,EC50,[8],10.9 µM (not active)
CCOc1ccc(-c2cc(CCCC(=O)Nc3cc(OC)ccc3OC)no2)cc1,EC50,HT-1080,> 50 µM (not active)
same,EC50,[12],13 µM (active)
same,IC50,[13],> 100 µM (not active)
same,EC50,[14],11.9 µM (active)
same,EC50,[15],18.8 µM (active)
same,EC50,[16],26.9 µM (active)
same,AC50,Cytochrome P450 2C19,3.16 µM (inconclusive)
CC(C)(C)c1ccc(NC(=O)COc2ccc(-n3ccnc3)cc2)cc1,EC50,[1],> 60 µM (not active)
same,EC50,[2],1.27 µM (active)
same,AC50,[17],5.27 µM (active)
same,IC50,cells [18],26.1 µM (active)
same,AC50,[19],10 µM (active)
same,AC50,[20],43.1 µM (active)
same,CC50,[21],> 20 µM (active)
same,EC50,[4],> 50 µM (active)
COc1ccc(/C(C)=C2/SC(=S)N(CCC(=O)O)C2=O)cc1,IC50,Leucine aminopeptidase,27.4 µM (active)
COC(=O)Cc1ccc(NC(=O)c2ccc(C(C)(C)C)cc2)cc1,IC50,Jurkat,0.19 µM (active)
same,EC50,HT-1080,> 50 µM (not active)
same,EC50,[12],< 0.1 µM (active)
same,EC50,[14],< 0.1 µM (active)
same,EC50,cells [22],0.263 µM (active)
same,IC50,[23],78.9 µM (inactive)
same,EC50,[15],1.8 µM (active)
same,EC50,[16],< 0.1 µM (active)
same,EC50,[24],0.067 µM (active)
same,EC50,[25],0.161 µM (active)
O=C(N/N=C/c1ccc([N+](=O)[O-])s1)c1ccccc1Br,EC50,HT-1080,> 50 µM (not active)
same,AC50,Cytochrome P450 2C9,39.8 µM (inconclusive)
same,EC50,[15],0.24 µM (active)
same,AC50,[26],3.65 µM (active)
same,AC50,Cytochrome P450 3A4,22.4 µM (inconclusive)
